Laboratory results taken from patent US10987349B2, “Antitumor agent and bromodomain inhibitor” (FUJIFILM Corporation, priority 2016, dated 2021).

Legend:
BRD3 BD2 = target: T1, BRD3 BD2 (Homo sapiens, UniProt Q15059); test: Binding assay, BRD3 BD2 to acetylated histone H4 Peptide-Biotin (EPIgeneous Binding Domain Kit B); settings: test compound at 300 nmol/L; for inhibition at 0.3 µM: read-out: Binding inhibition percentage BRD3 BD2
T1 construct: BRD2 BD2, BRD3 BD2 and BRD4 BD2 (Cisbio); purchased Cisbio
Procedure: (§1) Moreover, BRD2 BD2, BRD3 BD2 and BRD4 BD2 (Cisbio), Peptide-Biotin (AnaSpec), and EPIgeneous (registered trademark) Binding Domain Kit B (Cisbio) were used to carry out an assay. That is, per well, 4 μL of BRD2 BD2, BRD3 BD2 or BRD4 BD2, which was adjusted to 20 nmol/L with Diluent buffer; 4 μL of 250 nmol/L Peptide-Biotin; 2 μL of Dilution buffer (Cisbio) containing DMSO or a test compound that was serially diluted with DMSO; 5 μL of 25 nmol/L Streptavidin-XL665; 5 μL of Anti-Gst-Eu+^3+ Cryptate Conjugate 50-fold diluted with Detection Buffer were added to a 384-well plate (Corning).
(§2) The obtained mixture was left at rest at room temperature for 20 hours, and thereafter, the fluoresence intensity at 665 nm and 620 nm was measured using Envision plate reader (Perkin Elmer), so that the inhibition percentage (%) of the test compound against the binding of a bromodomain in a bromodomain-containing protein to Peptide-Biotin was calculated. Binding inhibition percentage (%)=[1−{(fluorescence intensity at 665 nm of test compound−added well)/(fluorescence intensity at 620 nm of test compound−added well)}/{(fluorescence intensity at 665 nm of DMSO−added well)/(fluorescence intensity at 665 nm of DMSO−added well)}]×100
(§3) Moreover, using Graphpad prism 5 (GraphPad software), 50% inhibitory concentration [IC50 (nmol/L)] was calculated according to a non-linear regression analysis (log (inhibitor) vs. response—Variable slope (four parameters)).
(§4) Regarding other test compounds, each compound was diluted with DMSO to a final concentration of 300 nmol/L by the same method as that described above, and the binding inhibition percentage (%) of each test compound at 300 nmol/L against the binding of bromodomain in a bromodomain-containing protein to acetylated histone was calculated.

BRD2 BD2 = target: T2, BRD2 BD2 (Homo sapiens, UniProt P25440); test: Binding assay, BRD2 BD2 to acetylated histone H4 Peptide-Biotin (EPIgeneous Binding Domain Kit B); settings: test compound at 300 nmol/L; for inhibition at 0.3 µM: read-out: Binding inhibition percentage BRD2 BD2
T2 construct: BRD2 BD2, BRD3 BD2 and BRD4 BD2 (Cisbio); purchased Cisbio
Procedure: as §1, §2, §3, §4

BRD4 BD1 = target: T3, BRD4 BD1 (Homo sapiens, UniProt O60885); test: Binding assay, BRD4 BD1 to acetylated histone H4 Peptide-Biotin (EPIgeneous Binding Domain Kit A); settings: test compound at 300 nmol/L; for inhibition at 0.3 µM: read-out: Binding inhibition percentage BRD4 BD1
T3 construct: BRD2 BD1, BRD3 BD1 and BRD4 BD1 (Cisbio); purchased Cisbio
Procedure: (§5) BRD2 BD1, BRD3 BD1 and BRD4 BD1 (Cisbio), [Lys(Ac)5/8/12/16]-Histone H4(1-25)-GSGSK (Biotin) (hereinafter referred to as “Peptide-Biotin,” AnaSpec), and EPIgeneous (registered trademark) Binding Domain Kit A (Cisbio) were used to carry out an assay. That is to say, per well, 4 μL of BRD2 BD1, BRD3 BD1 or BRD4 BD1, which was adjusted to 20 nmol/L with Diluent buffer; 4 μL of 25 nmol/L Peptide-Biotin; 2 μL of Dilution buffer (Cisbio) containing dimethyl sulfoxide (DMSO) or a test compound that was serially diluted with DMSO; 5 μL of 2.5 nmol/L Streptavidin-d2; and 5 μL of Anti-Gst-Eu+^3+ Cryptate Conjugate 50-fold diluted with Detection Buffer were added to a 384-well plate (Corning).
as §2, §3, §4

BRD3 BD1 = target: T4, BRD3 BD1 (Homo sapiens, UniProt Q15059); test: Binding assay, BRD3 BD1 to acetylated histone H4 Peptide-Biotin (EPIgeneous Binding Domain Kit A); settings: test compound at 300 nmol/L; for inhibition at 0.3 µM: read-out: Binding inhibition percentage BRD3 BD1
T4 construct: BRD2 BD1, BRD3 BD1 and BRD4 BD1 (Cisbio); purchased Cisbio
Procedure: as §5, §2, §3, §4

BRD4 BD2 = target: T5, BRD4 BD2 (Homo sapiens, UniProt O60885); test: Binding assay, BRD4 BD2 to acetylated histone H4 Peptide-Biotin (EPIgeneous Binding Domain Kit B); settings: test compound at 300 nmol/L; for inhibition at 0.3 µM: read-out: Binding inhibition percentage BRD4 BD2
T5 construct: BRD2 BD2, BRD3 BD2 and BRD4 BD2 (Cisbio); purchased Cisbio
Procedure: as §1, §2, §3, §4

BRD2 BD1 = target: T6, BRD2 BD1 (Homo sapiens, UniProt P25440); test: Binding assay, BRD2 BD1 to acetylated histone H4 Peptide-Biotin (EPIgeneous Binding Domain Kit A); settings: test compound at 300 nmol/L; for inhibition at 0.3 µM: read-out: Binding inhibition percentage BRD2 BD1
T6 construct: BRD2 BD1, BRD3 BD1 and BRD4 BD1 (Cisbio); purchased Cisbio
Procedure: as §5, §2, §3, §4

T2 sequence (P25440 344-453 limits assumed): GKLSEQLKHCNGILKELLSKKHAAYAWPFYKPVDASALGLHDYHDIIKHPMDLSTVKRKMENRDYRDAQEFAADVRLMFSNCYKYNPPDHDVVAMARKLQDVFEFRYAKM
T6 sequence (P25440 74-180 limits assumed): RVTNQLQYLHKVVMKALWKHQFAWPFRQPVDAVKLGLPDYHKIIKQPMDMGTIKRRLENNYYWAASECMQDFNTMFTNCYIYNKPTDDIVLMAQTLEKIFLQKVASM
T1 sequence (Q15059 306-415 limits assumed): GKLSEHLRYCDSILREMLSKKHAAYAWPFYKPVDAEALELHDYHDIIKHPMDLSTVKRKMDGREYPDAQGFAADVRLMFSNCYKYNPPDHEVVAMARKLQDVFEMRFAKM
T4 sequence (Q15059 34-140 limits assumed): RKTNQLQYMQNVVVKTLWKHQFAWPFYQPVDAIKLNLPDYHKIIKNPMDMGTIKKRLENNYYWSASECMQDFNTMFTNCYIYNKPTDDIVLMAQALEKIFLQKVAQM

Row | inhibition at 0.3 µM (BRD3 BD2) [%] | inhibition at 0.3 µM (BRD2 BD2) [%] | inhibition at 0.3 µM (BRD4 BD1) [%] | inhibition at 0.3 µM (BRD3 BD1) [%] | inhibition at 0.3 µM (BRD4 BD2) [%] | inhibition at 0.3 µM (BRD2 BD1) [%] | Binding inhibition percentage BRD3 BD2 (BRD3 BD2) [%] | Binding inhibition percentage BRD2 BD2 (BRD2 BD2) [%] | Binding inhibition percentage BRD4 BD1 (BRD4 BD1) [%] | Binding inhibition percentage BRD3 BD1 (BRD3 BD1) [%] | Binding inhibition percentage BRD4 BD2 (BRD4 BD2) [%] | Binding inhibition percentage BRD2 BD1 (BRD2 BD1) [%] | Structure (SMILES)
1 | 93 | 90 | 94 | 94 | 89 | 93 |  |  |  |  |  |  | CCn1c(=O)cc(N2CCOCC2)c2cc(-n3c(-c4ccc(C)cc4)cn(C)c3=O)ccc21 [Example 273, 1-ethyl-6-(3-methyl-5-(4-methylphenyl)-2-oxo-2,3-dihydro-1H-imidazol-1-yl)-4-(morpholin-4-yl)quinolin-2(1H)-one]
2 | 91 | 89 | 93 | 94 | 89 | 83 |  |  |  |  |  |  | CCn1c(=O)cc(C2CC2)c2cc(-c3cccnc3-c3ccccc3)ccc21 [Example 278, 4-cyclopropyl-1-ethyl-6-(2-phenylpyridin-3-yl)quinolin-2(1H)-one]
3 | 91 | 88 | 93 | 93 | 89 | 91 |  |  |  |  |  |  | CCn1c(=O)cc(N2CCOCC2)c2cc(-c3cccnc3-c3ccccc3)ccc21 [Example 279, 1-ethyl-4-(morpholin-4-yl)-6-(2-phenylpyridin-3-yl)quinolin-2(1H)-one]
4 | 92 | 88 | 93 | 90 | 90 | 83 |  |  |  |  |  |  | CCn1c(=O)cc(C2CC2)c2cc(N3C(=O)C(C)C(=O)N3c3ccccc3)ccc21 (stereo not drawn) [Example 280, 1-(4-cyclopropyl-1-ethyl-2-oxo-1,2-dihydroquinolin-6-yl)-4-methyl-2-phenylpyrazolidine-3,5-dione]
5 | 91 | 89 | 94 | 92 | 88 | 87 |  |  |  |  |  |  | CCC1C(=O)N(c2ccccc2)N(c2ccc3c(c2)c(C2CC2)cc(=O)n3CC)C1=O (stereo not drawn) [Example 281, 1-(4-cyclopropyl-1-ethyl-2-oxo-1,2-dihydroquinolin-6-yl)-4-ethyl-2-phenylpyrazolidine-3,5-dione]
6 |  |  |  |  |  |  | 91 | 90 | 95 | 94 | 89 | 94 | CCn1c(=O)cc(C2CC2)c2cc(-n3c(=O)cc(C)n3-c3ccccc3)ccc21 [Example 282a, 4-Cyclopropyl-1-ethyl-6-(3-methyl-5-oxo-2-phenyl-2,5-dihydro-1H-pyrazol-1-y 1)quinolin-2(1H)-one]

The next lines start with the compound.

Row | Structure (SMILES) | inhibition at 0.3 µM (BRD3 BD2) [%] | inhibition at 0.3 µM (BRD2 BD2) [%] | inhibition at 0.3 µM (BRD4 BD1) [%] | inhibition at 0.3 µM (BRD3 BD1) [%] | inhibition at 0.3 µM (BRD4 BD2) [%] | inhibition at 0.3 µM (BRD2 BD1) [%] | Binding inhibition percentage BRD3 BD2 (BRD3 BD2) [%] | Binding inhibition percentage BRD2 BD2 (BRD2 BD2) [%] | Binding inhibition percentage BRD4 BD1 (BRD4 BD1) [%] | Binding inhibition percentage BRD3 BD1 (BRD3 BD1) [%] | Binding inhibition percentage BRD4 BD2 (BRD4 BD2) [%] | Binding inhibition percentage BRD2 BD1 (BRD2 BD1) [%]
7 | CCn1c(=O)cc(N2CCOCC2)c2cc(-n3c(-c4ccccc4)cn(CCO)c3=O)ccc21 [Example 262, 1-ethyl-6-(3-(2-hydroxyethyl)-2-oxo-5-phenyl-2,3-dihydro-1H-imidazol-1-yl)-4-(morpholin-4-yl)quinolin-2(1H)-one] | 92 | 89 | 94 | 94 | 88 | 87 |  |  |  |  |  | 
8 | CCCCn1cc(-c2ccccc2)n(-c2ccc3c(c2)c(N2CCOCC2)cc(=O)n3CC)c1=O [Example 264, 6-(3-butyl-2-oxo-5-phenyl-2,3-dihydro-1H-imidazol-1-yl)-1-ethyl-4-(morpholin-4-yl)quinolin-2(1H)-one] | 91 | 88 | 95 | 94 | 88 | 92 |  |  |  |  |  | 
9 | CCCn1cc(-c2ccccc2)n(-c2ccc3c(c2)c(N2CCOCC2)cc(=O)n3CC)c1=O [Example 265, 1-ethyl-4-(morpholin-4-yl)-6-(2-oxo-5-phenyl-3-propyl-2,3-dihydro-1H-imidazol-1-yl)quinolin-2(1H)-one] | 92 | 89 | 94 | 95 | 87 | 91 |  |  |  |  |  | 
10 | CCn1cc(-c2ccccc2)n(-c2ccc3c(c2)c(N2CCOCC2)cc(=O)n3CC)c1=O [Example 266, 1-ethyl-6-(3-ethyl-2-oxo-5-phenyl-2,3-dihydro-1H-imidazol-1-yl)-4-(morpholin-4-yl)quinolin-2(1H)-one] | 91 | 90 | 93 | 94 | 88 | 91 |  |  |  |  |  | 
11 | CCn1c(=O)cc(C2CC2)c2cc(-n3c(-c4ccc(C(F)(F)F)cc4)cn(C)c3=O)ccc21 [Example 267, 4-cyclopropyl-1-ethyl-6-(3-methyl-2-oxo-5-(4-(trifluoromethyl)phenyl)-2,3-dihydro-1H-imidazol-1-yl)quinolin-2(1H)-one] | 90 | 87 | 68 | 53 | 87 | 32 |  |  |  |  |  | 
12 | CCn1c(=O)cc(C2CC2)c2cc(-n3c(-c4ccc(C(F)(F)F)cc4)c[nH]c3=O)ccc21 [Example 268, 4-cyclopropyl-1-ethyl-6-(2-oxo-5-(4-(trifluoromethyl)phenyl)-2,3-dihydro-1H-imidazol-1-yl)quinolin-2(1H)-one] | 92 | 86 | 73 | 62 | 87 | 48 |  |  |  |  |  | 
13 | CCn1c(=O)cc(C2CC2)c2cc(-n3c(-c4ccc(Cl)cc4)cn(C)c3=O)ccc21 [Example 269, 6-(5-(4-chlorophenyl)-3-methyl-2-oxo-2,3-dihydro-1H-imidazol-1-yl)-4-cyclopropyl-1-ethylquinolin-2(1H)-one] | 92 | 85 | 71 | 58 | 87 | 36 |  |  |  |  |  | 
14 | CCn1c(=O)cc(N2CCOCC2)c2cc(-n3c(-c4ccc(C(F)(F)F)cc4)cn(C)c3=O)ccc21 [Example 270, 1-ethyl-6-(3-methyl-2-oxo-5-(4-(trifluoromethyl)phenyl)-2,3-dihydro-1H-imidazol-1-yl)-4-(morpholin-4-yl)quinolin-2(1H)-one] | 91 | 89 | 94 | 94 | 89 | 87 |  |  |  |  |  | 
15 | CCn1c(=O)cc(C2CC2)c2cc(-n3c(-c4ccc(Cl)cc4)c[nH]c3=O)ccc21 [Example 271, 6-(5-(4-chlorophenyl)-2-oxo-2,3-dihydro-1H-imidazol-1-yl)-4-cyclopropyl-1-ethylquinolin-2(1H)-one] | 92 | 88 | 77 | 72 | 88 | 60 |  |  |  |  |  | 
16 | CCn1c(=O)cc(N2CCOCC2)c2cc(-n3c(-c4ccc(C(F)(F)F)cc4)c[nH]c3=O)ccc21 [Example 272, 1-ethyl-6-(2-oxo-5-(4-(trifluoromethyl)phenyl)-2,3-dihydro-1H-imidazol-1-yl)-4-(morpholin-4-yl)quinolin-2(1H)-one] | 91 | 89 | 93 | 93 | 90 | 87 |  |  |  |  |  | 
